The structures appear in SMILES notation. Positions count from the first letter of the chain named. Like-named read-outs stand apart in the source and are kept apart here.

One assay deals with T1, M1 receptor (Rattus norvegicus, UniProt P08482).
T1 construct: expressed in transfected cells
T1 sequence (P08482 1-460): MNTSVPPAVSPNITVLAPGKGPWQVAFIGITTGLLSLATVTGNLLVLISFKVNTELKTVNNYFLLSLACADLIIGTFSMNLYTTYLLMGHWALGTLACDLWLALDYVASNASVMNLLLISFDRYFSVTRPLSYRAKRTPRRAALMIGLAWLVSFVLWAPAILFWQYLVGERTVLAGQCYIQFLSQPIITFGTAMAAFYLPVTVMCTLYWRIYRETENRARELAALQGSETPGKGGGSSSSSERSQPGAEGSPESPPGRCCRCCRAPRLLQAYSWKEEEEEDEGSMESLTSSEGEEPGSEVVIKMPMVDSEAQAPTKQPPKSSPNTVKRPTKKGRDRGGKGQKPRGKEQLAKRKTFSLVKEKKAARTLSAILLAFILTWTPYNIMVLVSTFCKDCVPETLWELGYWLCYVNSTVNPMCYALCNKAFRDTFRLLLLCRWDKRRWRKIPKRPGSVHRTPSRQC
Kind of assay: M1 PAM assay (FLIPR intracellular calcium), rat. It counts as cell-based. On the technique in general: Calcium flux is commonly read through the fluorescence of an indicator in the cells.

The target of another assay is T2, human M1 (Homo sapiens, UniProt P11229).
T2 construct: expressed in transfected cells; host or cells: CHO cells
T2 sequence (P11229 1-460): T1 sequence (P08482 1-460) with V5A, S254T, S309P, K320R, G337A, V413I
Kind of assay: M1 PAM assay (FLIPR intracellular calcium, CHO human M1). Format: cell-based. On the procedure:
The assay study the effect of several concentrations of test compounds on basal or acetylcholine-stimulated Ca^2+ levels using FLIPR. CHO human M1 are plated the day before the experiments at 2×10^5 cells/ml in PDL BioCoat 96 well black/clear plate (Becton 35 4640). The cells are grown at 37° C. and 5% CO2 in the following medium: F12 Nut Mix (Gibco 21765), 10% FCS heat inactivated (GIBCO 16000-044), 1% Pen Strep (Gibco, 15140) and 200 μg/ml Geneticin (Gibco 11811). On the day of the experiment, the medium was removed and replaced by 100 μl of dye loading buffer containing Hanks Balanced Salt solution (HBSS, 14065-049, Gibco) with 20 mM HEPES (Gibco 15630-056), 2 mM Probenicid (Sigma P8761), […] (Molecular Probes F-14202), 10% Pluronic acid Molecular Probes P-3000) pH=7.4 and incubated at 37° C. After 60 minutes extracellular dye was removed and the cells were washed five times with FLIPR buffer containing HBSS (Gibco 14065-049) with 20 mM HEPES (Gibco, 15630-056), 2 mM Probenicid (Sigma P8761) pre-warmed at 37° C. using and Ebml cell washer leaving 100 μl of FLIPR buffer in each well. The cell plate and the diluted compounds (1% DMSO final concentration) are placed on the platform of the FLIPR and the door closed. A signal test to check background fluorescence and basal fluorescence signal is performed. Laser intensity is adjusted if necessary. Two minutes preincubation with the diluted test compounds is provide to determine any agonist activity on the M1 receptor by comparison to 30 nM Acetylcholine control. In order to determine any modulator activity the diluted compounds were added to cells and after two minutes preincubation, the EC20 of acetylcholine is added followed by another two minutes preincubation before the measurement of intracellular Ca^2+ with a FLIPR (Molecular Devices).

The mark [1] stands for this setting: human M1 in CHO cells, modulator activity with EC20 of acetylcholine, FLIPR Ca2+, read-out: EC50 h PAM.

A word on the EC50: it is the concentration giving half of the maximal effect. Turning to `Cn1cc(-c2ccc(Cn3cc(C(=O)N[C@H]4CCOC[C@@H]4O)c4ncccc43)c(F)c2)cn1` (racemic) [Example 4, 1-(2-fluoro-4-(1-methyl-1H-pyrazol-4-yl)benzyl)-N-((3RS,4SR)-3-hydroxytetrahydro-2H-pyran-4-yl)-1H-pyrrolo[3,2-b]pyridine-3-carboxamide], the values for the EC50 at M1 receptor and on human M1 were 58.7 nM and 28.6 nM, respectively. On to `COCC(O)CNC(=O)c1cn(Cc2ccc(-c3cnn(C)c3)cc2F)c2cccnc12` (racemic) [Example 7, rac-1-[2-Fluoro-4-(1-methyl-1H-pyrazol-4-yl)-benzyl]-1H-pyrrolo[3,2-b]pyridine-3-carboxylic acid (2-hydroxy-3-methoxy-propyl)-amide], for which the EC50 on human M1 (setting [1]) was 232 nM. Take `Cn1cc(-c2ccc(Cn3cc(C(=O)N[C@H]4CCCC[C@H]4O)c4ncccc43)c(F)c2)cn1` (racemic) [Example 37]: the EC50 at M1 receptor worked out at 123 nM; at human M1, 162 nM.

As for `Cn1cc(-c2ccc(Cn3cc(C(=O)N[C@H]4CCCC[C@]4(C)O)c4ncccc43)c(F)c2)cn1` (racemic) [Example 39, 1-(2-fluoro-4-(1-methyl-1H-pyrazol-4-yl)benzyl)-N-((1SR,2SR)-2-hydroxy-2-methylcyclohexyl)-1H-pyrrolo[3,2-b]pyridine-3-carboxamide], the EC50 on M1 receptor came to 264 nM; on human M1, 177 nM. In the case of `Cn1cc(-c2ccc(Cn3cc(C(=O)N[C@H]4CCCC[C@@]4(C)O)c4ncccc43)c(F)c2)cn1` (racemic) [Example 40, 1-(2-fluoro-4-(1-methyl-1H-pyrazol-4-yl)benzyl)-N-((1SR,2RS)-2-hydroxy-2-methylcyclohexyl)-1H-pyrrolo[3,2-b]pyridine-3-carboxamide], the figures for the EC50 at M1 receptor and at human M1 were 63.2 nM and 47.9 nM, respectively. In the case of `Cn1cc(-c2ccc(Cn3cc(C(=O)N[C@H]4CCOC[C@@H]4O)c4ncccc43)cn2)cn1` (racemic) [Example 57, N-((3RS,4SR)-3-hydroxytetrahydro-2H-pyran-4-yl)-1-((6-(1-methyl-1H-pyrazol-4-yl)pyridin-3-yl)methyl)-1H-pyrrolo[3,2-b]pyridine-3-carboxamide], the EC50 at M1 receptor is 133 nM; at human M1 it was 143 nM. Consider `C[C@@H](O)CNC(=O)c1cn(Cc2ccc(-c3cnn(C)c3)cc2F)c2cccnc12` [Example 9], for which, on human M1 (setting [1]), the EC50 amounted to 459 nM. With `C[C@H](O)CNC(=O)c1cn(Cc2ccc(-c3cnn(C)c3)cc2F)c2cccnc12` [Example 10], at human M1 (setting [1]), the concentration giving a half-maximal response (EC50) amounted to 477 nM.

For the compound `Cn1cc(-c2ccc(Cn3cc(C(=O)NC[C@@H](O)CO)c4ncccc43)c(F)c2)cn1` [Example 15, 1-[2-Fluoro-4-(1-methyl-1H-pyrazol-4-yl)-benzyl]-1H-pyrrolo[3,2-b]pyridine-3-carboxylic acid ((R)-2,3-dihydroxy-propyl)-amide], the EC50 at human M1 (setting [1]) stood at 333 nM.

Consider `Cn1cc(-c2ccc(Cn3cc(C(=O)N[C@@H]4CCC[C@H]4O)c4ncccc43)c(F)c2)cn1` [Example 16, 1-[2-Fluoro-4-(1-methyl-1H-pyrazol-4-yl)-benzyl]-1H-pyrrolo[3,2-b]pyridine-3-carboxylic acid ((1R,2R)-2-hydroxy-cyclopentyl)-amide], for which the EC50 on human M1 stood at 397 nM. Still for that read-out and setting: the value for `CC(C)[C@H](CO)NC(=O)c1cn(Cc2ccc(-c3cnn(C)c3)cc2F)c2cccnc12` [Example 21, 1-[2-Fluoro-4-(1-methyl-1H-pyrazol-4-yl)-benzyl]-1H-pyrrolo[3,2-b]pyridine-3-carboxylic acid ((R)-1-hydroxymethyl-2-methyl-propyl)-amide] was 201 nM. Same read-out and setting: the value for `CCC[C@@H](CO)NC(=O)c1cn(Cc2ccc(-c3cnn(C)c3)cc2F)c2cccnc12` [Example 23, 1-[2-Fluoro-4-(1-methyl-1H-pyrazol-4-yl)-benzyl]-1H-pyrrolo[3,2-b]pyridine-3-carboxylic acid ((S)-1-hydroxymethyl-butyl)-amide] was 205 nM. As for `CC(C)C[C@@H](CO)NC(=O)c1cn(Cc2ccc(-c3cnn(C)c3)cc2F)c2cccnc12` [Example 25, 1-[2-Fluoro-4-(1-methyl-1H-pyrazol-4-yl)-benzyl]-1H-pyrrolo[3,2-b]pyridine-3-carboxylic acid ((S)-1-hydroxymethyl-3-methyl-butyl)-amide], the EC50 at human M1 (setting [1]) came out at 233 nM. As to `Cn1cc(-c2ccc(Cn3cc(C(=O)Nc4ccccc4CO)c4ncccc43)c(F)c2)cn1` [Example 29, 1-[2-Fluoro-4-(1-methyl-1H-pyrazol-4-yl)-benzyl]-1H-pyrrolo[3,2-b]pyridine-3-carboxylic acid (2-hydroxymethyl-phenyl)-amide], the EC50 on human M1 (setting [1]) is 298 nM.

Turning to `Cn1cc(-c2ccc(Cn3cc(C(=O)NCC(O)c4ccccc4)c4ncccc43)c(F)c2)cn1` (stereo not shown) [Example 31, 1-[2-Fluoro-4-(1-methyl-1H-pyrazol-4-yl)-benzyl]-1H-pyrrolo[3,2-b]pyridine-3-carboxylic acid (2-hydroxy-2-phenyl-ethyl)-amide], the concentration giving a half-maximal response (EC50) at human M1 (setting [1]) was 429 nM. The same measure, in the same setting: the value for `Cc1ccc(NC(=O)c2cn(Cc3ccc(-c4cnn(C)c4)cc3F)c3cccnc23)c(CO)c1` [Example 33, 1-[2-Fluoro-4-(1-methyl-1H-pyrazol-4-yl)-benzyl]-1H-pyrrolo[3,2-b]pyridine-3-carboxylic acid (2-hydroxymethyl-4-methyl-phenyl)-amide] was 282 nM.

With `Cc1cccnc1NC(=O)c1cn(Cc2ccc(-c3cnn(C)c3)cc2F)c2cccnc12` [Example 35, 1-[2-Fluoro-4-(1-methyl-1H-pyrazol-4-yl)-benzyl]-1H-pyrrolo[3,2-b]pyridine-3-carboxylic acid (3-methyl-pyridin-2-yl)-amide], the 50% effective concentration (EC50) at human M1 (setting [1]) came to 320 nM.

`CO[C@H]1CCCC[C@@H]1NC(=O)c1cn(Cc2ccc(-c3cnn(C)c3)cc2F)c2cccnc12` [Example 38, 1-[2-Fluoro-4-(1-methyl-1H-pyrazol-4-yl)-benzyl]-1H-pyrrolo[3,2-b]pyridine-3-carboxylic acid ((1S,2S)-2-methoxy-cyclohexyl)-amide]: the concentration giving a half-maximal response (EC50) at human M1 (setting [1]) amounted to 369 nM.

For the compound `Cn1cc(-c2ccc(Cn3cc(C(=O)N[C@@H]4COCC[C@H]4O)c4ncccc43)c(F)c2)cn1` [Example 42, 1-(2-fluoro-4-(1-methyl-1H-pyrazol-4-yl)benzyl)-N-((3R,4R)-4-hydroxytetrahydro-2H-pyran-3-yl)-1H-pyrrolo[3,2-b]pyridine-3-carboxamide], the EC50 on human M1 turned out to be 487 nM.

On to `O=C(N[C@H]1CCCC[C@@H]1O)c1cn(Cc2ccc(Br)cc2)c2cccnc12` [Example 50, 1-(4-bromobenzyl)-N-((1S,2S)-2-hydroxycyclohexyl)-1H-pyrrolo[3,2-b]pyridine-3-carboxamide], for which, on human M1 (setting [1]), the half-maximal effective concentration (EC50) came to 319 nM. `Cn1cc(-c2cccc(Cn3cc(C(=O)N[C@H]4CCCC[C@@H]4O)c4ncccc43)c2)cn1` [Example 51, N-((1S,2S)-2-hydroxycyclohexyl)-1-(3-(1-methyl-1H-pyrazol-4-yl)benzyl)-1H-pyrrolo[3,2-b]pyridine-3-carboxamide]: at human M1, the half-maximal effective concentration (EC50) came to 443 nM. Still for that read-out and setting: the value for `N#Cc1ccc(Cn2cc(C(=O)N[C@H]3CCCC[C@@H]3O)c3ncccc32)c(F)c1` [Example 53, 1-(4-cyano-2-fluorobenzyl)-N-((1S,2S)-2-hydroxycyclohexyl)-1H-pyrrolo[3,2-b]pyridine-3-carboxamide] was 321 nM. `O=C(N[C@H]1CCCC[C@@H]1O)c1cn(Cc2ccc(Cl)cc2)c2cccnc12` [Example 54, 1-(4-chlorobenzyl)-N-((1S,2S)-2-hydroxycyclohexyl)-1H-pyrrolo[3,2-b]pyridine-3-carboxamide]: at human M1, the EC50 was found to be 264 nM.

These data come from US9932335B2 (priority 2013, dated 2018).
